The values below come from article PMC11585590 (Nature Communications, 2024).

The Dmax is the greatest extent of degradation seen. Broadly, the Kd is the equilibrium constant for the complex coming apart. A higher Kd goes with lower affinity.

Data set [1] addresses T1, HiBiT-tagged WDR5 (Homo sapiens, UniProt P61964+Q9Y4B6). In words: Proteasome dependence: HiBiT-WDR5 level after 5 h with PROTAC 4 and/or MG132. It is filed as cell-based. The note with it: co-treatment with PROTAC 4 at 1.5 µM. Background: With HiBiT, luminescence reflects the tagged protein that the partner subunit can reach.
The test system of data set [2] is MV4-11 cells expressing HiBiT WDR5. In words: ATPlite viability of MV4-11 cells expressing HiBiT WDR5, 24 h. It is filed as cell-based. The note with it: 2 nM to 10 μM.
In data set [3] the target is WDR5 (Homo sapiens, UniProt P61964). In words: Western blot of WDR5 in MV4-11 cells, 1.5 μM PROTAC, 24 h. It is filed as cell-based. A general note: In western blotting, separated proteins are transferred to a membrane and probed.
Data set [4] deals with WDR5. The note with it: highest concentration of 7.5 µM, no hook effect; cited from earlier work.
Data set [5] addresses T1, HiBiT-tagged WDR5. The data set can be described thus: Exogenous HiBiT WDR5 degradation assay, 24 h. It is filed as cell-based. The note with it: for Dmax of exogenous HiBiT-WDR5 degradation: MV4-11 cells expressing HiBiT-tagged WDR5, 24 h; for Dmax: MV4-11, read-out: Dmax of exogenous HiBiT-WDR5 degradation, MV4-11 cells expressing HiBiT-tagged WDR5, 24 h.
For data set [6], the target named is DCAF1-PROTAC-WDR5 ternary complex (Homo sapiens, UniProt P61964+Q9Y4B6). In words: SPR ternary complex formation: PROTAC with 0.25 µM WDR5 on immobilized DCAF1. It is filed as binding. The note with it: WDR5 0.25 µM.
Sequence of DCAF1-PROTAC-WDR5 ternary complex (Q9Y4B6 1077-1390, one chain of several): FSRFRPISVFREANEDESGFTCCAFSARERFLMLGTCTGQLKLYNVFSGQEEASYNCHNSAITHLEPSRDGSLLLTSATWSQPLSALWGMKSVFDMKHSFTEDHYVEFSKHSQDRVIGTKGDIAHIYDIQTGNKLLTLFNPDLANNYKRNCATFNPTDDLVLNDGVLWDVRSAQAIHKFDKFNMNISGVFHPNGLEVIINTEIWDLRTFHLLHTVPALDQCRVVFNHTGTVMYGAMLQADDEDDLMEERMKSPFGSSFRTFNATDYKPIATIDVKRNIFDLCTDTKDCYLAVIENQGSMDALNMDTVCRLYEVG
The target in data set [7] is endogenous WDR5 (Homo sapiens, UniProt P61964). In words: Endogenous WDR5 degradation assay using ProteinSimple's Jess, 24 h. It is filed as cell-based. The note with it: for Dmax: MV4-11, read-out: Dmax of endogenous WDR5 degradation, parental MV4-11 cells, 24 h; for DC50: read-out: EC50 of endogenous WDR5 degradation.
Data set [8] has as its target DCAF1 (Homo sapiens, UniProt Q9Y4B6). The data set can be described thus: SPR ternary complex format: PROTAC alone on immobilized DCAF1. It is filed as binding. The note with it: for Rmax: PROTAC alone, absence of WDR5; for koff: read-out: koff (1/s); for kon: read-out: kon (1/Ms).

Entries after “also recorded” stand apart in the source; their conditions may differ. Peptide text beside a SMILES is read from it. * marks the point of attachment. Cbz = O=C(OCc1ccccc1)*

T1 sequence (Q9Y4B6 whole entry, one chain of several): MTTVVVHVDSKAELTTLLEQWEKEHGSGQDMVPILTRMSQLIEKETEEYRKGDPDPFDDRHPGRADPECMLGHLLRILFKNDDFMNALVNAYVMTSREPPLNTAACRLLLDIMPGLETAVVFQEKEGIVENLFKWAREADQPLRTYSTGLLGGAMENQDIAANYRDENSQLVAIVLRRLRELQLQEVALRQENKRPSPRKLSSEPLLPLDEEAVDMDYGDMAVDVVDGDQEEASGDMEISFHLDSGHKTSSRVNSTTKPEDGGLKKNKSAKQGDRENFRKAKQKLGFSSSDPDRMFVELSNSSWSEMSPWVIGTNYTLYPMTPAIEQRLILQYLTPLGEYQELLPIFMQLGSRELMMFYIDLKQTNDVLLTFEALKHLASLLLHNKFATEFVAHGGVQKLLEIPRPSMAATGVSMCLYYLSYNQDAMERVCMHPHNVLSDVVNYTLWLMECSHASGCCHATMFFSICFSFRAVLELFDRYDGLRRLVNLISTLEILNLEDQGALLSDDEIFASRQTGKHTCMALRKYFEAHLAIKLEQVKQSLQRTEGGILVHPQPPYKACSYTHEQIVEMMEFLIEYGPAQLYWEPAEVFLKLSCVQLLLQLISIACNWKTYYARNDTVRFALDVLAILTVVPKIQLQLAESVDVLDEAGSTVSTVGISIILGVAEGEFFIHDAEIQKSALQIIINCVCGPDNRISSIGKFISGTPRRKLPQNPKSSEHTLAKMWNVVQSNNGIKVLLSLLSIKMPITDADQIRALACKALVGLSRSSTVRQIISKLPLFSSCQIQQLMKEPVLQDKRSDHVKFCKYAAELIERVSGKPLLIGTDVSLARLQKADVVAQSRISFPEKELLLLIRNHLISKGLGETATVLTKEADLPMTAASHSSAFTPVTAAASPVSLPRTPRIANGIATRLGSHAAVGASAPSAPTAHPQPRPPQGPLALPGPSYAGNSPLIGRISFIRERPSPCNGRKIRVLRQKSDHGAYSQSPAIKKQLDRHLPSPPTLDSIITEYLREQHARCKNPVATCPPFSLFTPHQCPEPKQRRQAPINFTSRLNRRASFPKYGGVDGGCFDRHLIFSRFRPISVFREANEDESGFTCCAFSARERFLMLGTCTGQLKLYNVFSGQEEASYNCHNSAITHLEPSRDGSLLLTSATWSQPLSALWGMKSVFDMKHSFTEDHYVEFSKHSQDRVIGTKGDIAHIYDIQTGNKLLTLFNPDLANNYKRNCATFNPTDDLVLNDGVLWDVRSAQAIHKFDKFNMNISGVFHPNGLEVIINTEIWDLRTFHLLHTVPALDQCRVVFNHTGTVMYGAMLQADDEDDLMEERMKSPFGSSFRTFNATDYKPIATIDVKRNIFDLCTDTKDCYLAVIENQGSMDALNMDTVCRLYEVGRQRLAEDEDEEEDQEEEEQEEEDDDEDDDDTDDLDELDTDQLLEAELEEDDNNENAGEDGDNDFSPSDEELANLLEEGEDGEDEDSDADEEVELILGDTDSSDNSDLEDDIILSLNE
Sequence of DCAF1 (Q9Y4B6 1077-1390): as the sequence (Q9Y4B6 1077-1390, one chain of several) above

Take `CC(C)C[C@@H](C=O)NC(=O)[C@H](CC(C)C)NC(=O)[C@H](CC(C)C)NC(=O)OCc1ccccc1` [MG132] (Cbz-Leu-Leu-Leu-aldehyde): the “HiBiT-WDR5 level reached on rescue by MG132” value in data set [1] was “approximately 100%”.
On to `Cc1ncsc1-c1ccc([C@H](C)NC(=O)[C@@H]2C[C@@H](O)CN2C(=O)[C@@H](NC(=O)CNC(=O)c2ccc(F)c(-c3ccc(N4C[C@@H](C)N(C)[C@@H](C)C4)c(NC(=O)c4c[nH]c(=O)cc4C(F)(F)F)c3)c2)C(C)(C)C)cc1` [MS67, reference compound], for which, in data set [2], the “toxicity / viability after 24 h (ATPlite)” value is “displayed some toxicity”. The “WDR5 protein level by Western blot” value in data set [3] was “significantly decreased; also recorded: comparable levels of WDR5 degradation”. In data set [4], the “Dmax of WDR5 degradation” value is reported as ~ 70%. In addition, the “Dmax of exogenous HiBiT-WDR5 degradation” value in data set [5] was determined as 78.7%.
With `C[C@@H]1CN(c2ccc(-c3cc(C(=O)NCCOCCOCCOCCOCCNC(=O)/C=C/c4[nH]cc(C(=O)N[C@@H](CC(N)=O)c5ccc(F)c(Cl)c5)c4-c4ccc(Cl)cc4F)ccc3F)cc2NC(=O)c2c[nH]c(=O)cc2C(F)(F)F)C[C@H](C)N1C` [PROTAC 1], the Rmax in data set [6] is on record as 390. Besides, in data set [7], the Dmax is 23.5 ± 11.4%. For the same compound, the DC50 in data set [7] (parental MV4-11 cells, 24 h) amounted to 0.186 ± 0.089 µM. Moreover, the “WDR5 protein level by Western blot” value in data set [3] is recorded as “moderate WDR5 degradation”. Moreover, in data set [8], binding was put at a Kd of 0.046 ± 0.0004 µM, the Rmax is listed as 101, the koff stood at 0.011 s⁻¹ and the kon is 249000 M⁻¹ s⁻¹. In data set [5], the Dmax was 31.6 ± 5.5% and the “Dmax of exogenous HiBiT-WDR5 degradation” value stood at 32%.
Take `C[C@@H]1CN(c2ccc(-c3cc(C(=O)NCCOCCOCCOCCOCCNC(=O)Cn4cc(-c5[nH]cc(C(=O)N[C@@H](CC(N)=O)c6ccc(F)c(Cl)c6)c5-c5ccc(Cl)cc5F)cn4)ccc3F)cc2NC(=O)c2c[nH]c(=O)cc2C(F)(F)F)C[C@H](C)N1C` [PROTAC 2]: in data set [6], the Rmax is 621. In addition, in data set [7], the Dmax was found to be 21.9 ± 11.1%. Moreover, the DC50 in data set [7] (parental MV4-11 cells, 24 h) was 0.135 ± 0.006 µM. In data set [3], the “WDR5 protein level by Western blot” value is “moderate WDR5 degradation”. Also, in data set [8], the Kd was 0.038 ± 0.0006 µM, the Rmax was found to be 106 and the koff stood at 0.008 s⁻¹. Also, the Dmax in data set [5] was 41.2 ± 2.5%.
Consider `C[C@@H]1CN(c2ccc(-c3cc(C(=O)NCCOCCOCCOCCOCCOCCOCCNC(=O)/C=C/c4[nH]cc(C(=O)N[C@@H](CC(N)=O)c5ccc(F)c(Cl)c5)c4-c4ccc(Cl)cc4F)ccc3F)cc2NC(=O)c2ccc(F)cc2C(F)(F)F)C[C@H](C)N1C` [PROTAC 3], for which the Rmax in data set [6] came out at 685. Moreover, the Dmax in data set [7] was determined as 33.4 ± 6.8%. Besides, the DC50 in data set [7] (parental MV4-11 cells, 24 h) was 0.093 ± 0.037 µM. Further, the “WDR5 protein level by Western blot” value in data set [3] is listed as “moderate WDR5 degradation”. Also, in data set [8], the Kd is 0.048 ± 0.0028 µM, the Rmax was 42, the koff is 0.003 s⁻¹ and the kon amounted to 69600 M⁻¹ s⁻¹. In addition, the Dmax in data set [5] stood at 41.9 ± 4.5%.
Turning to `C[C@@H]1CN(c2ccc(-c3cc(C(=O)NCCOCCOCCOCCOCCOCCOCCOCCOCCOCCNC(=O)/C=C/c4[nH]cc(C(=O)N[C@@H](CC(N)=O)c5ccc(F)c(Cl)c5)c4-c4ccc(Cl)cc4F)ccc3F)cc2NC(=O)c2c[nH]c(=O)cc2C(F)(F)F)C[C@H](C)N1C` [PROTAC 4], in data set [2], the “toxicity / viability after 24 h (ATPlite)” value is listed as “did not show a significant toxicity”. In data set [6], this compound registered an Rmax of 818. Besides, in data set [7], the maximal degradation (Dmax) was 49.1%. For the same compound, in data set [7] (parental MV4-11 cells, 24 h), the “Dmax of endogenous WDR5 degradation” value is 49 ± 1.9% and the DC50 amounted to 0.04 ± 0.024 µM. For the same compound, in data set [3], the “WDR5 protein level by Western blot” value is on record as “significantly decreased; also recorded: comparable levels of WDR5 degradation”. In addition, in data set [8], the Kd came to 0.059 ± 0.0009 µM, the Rmax amounted to 102, the koff was 0.014 s⁻¹ and the kon was found to be 239000 M⁻¹ s⁻¹. Besides, in data set [5], the Dmax was determined as 73.8 ± 2.9%.
For the compound `C[C@@H]1CN(c2ccc(-c3cc(C(=O)NCCCNC(=O)/C=C/c4[nH]cc(C(=O)N[C@@H](CC(N)=O)c5ccc(F)c(Cl)c5)c4-c4ccc(Cl)cc4F)ccc3F)cc2NC(=O)c2c[nH]c(=O)cc2C(F)(F)F)C[C@H](C)N1C` [PROTAC 5], the “degradation of endogenous WDR5 in cells” value in data set [7] (MV4-11 cells) is listed as “did not degrade”. In data set [5] (MV4-11 cells), the “degradation of exogenous WDR5 in cells” value was “did not degrade”.
